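Results reflect a 48-hour exposure of cells in 96-well plates to compound at five concentrations. At the TGI there is no net growth.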

Test systems include NCI-H522 lung; NCI-H226 lung; SN12C renal; HCT-116 colon; SNB-75 CNS; DLD-1 colon; MCF7 breast; COLO 205 colon; OVCAR-8 ovarian; HCT-15 colon; MOLT-4 leukemia; KM12 colon; UACC-62 melanoma; NCI-H460 lung; HT29 colon; RXF 393 renal; UACC-257 melanoma; TK-10 renal; SR leukemia; MDA-MB-435.
What all share (test): growth of human tumour cells (NCI), 48 h

Regarding `C=CC12CN(C)C3C4COC(CC41)C1(C(=O)Nc4ccccc41)C32` (stereo not drawn), the TGI in the assay on NCI-H522 lung, with NCI-H226 lung, in the assay with SN12C renal, in the assay with HCT-116 colon, with SNB-75 CNS and with DLD-1 colon was > 200 µM throughout. Moreover, the TGI in the assay on MCF7 breast, in the assay with COLO 205 colon, in the assay on OVCAR-8 ovarian, in the assay on HCT-15 colon, in the assay with MOLT-4 leukemia and with KM12 colon was > 200 µM throughout. Besides, the TGI in the assay on UACC-62 melanoma, in the assay on NCI-H460 lung, with HT29 colon, with RXF 393 renal and in the assay with UACC-257 melanoma was > 200 µM each time.

As to `CC1=NN(C(=O)c2ccc(Cl)cc2)C(=O)/C1=C/c1cccc([N+](=O)[O-])c1`, the TGI in the assay on NCI-H522 lung, in the assay with SN12C renal, in the assay on HCT-116 colon, with DLD-1 colon, in the assay with COLO 205 colon and in the assay on OVCAR-8 ovarian was > 100 µM in each case. The TGI with TK-10 renal, in the assay with HCT-15 colon, in the assay on KM12 colon, in the assay on UACC-62 melanoma, with NCI-H460 lung and with HT29 colon was > 100 µM each time. Also, the TGI in the assay on RXF 393 renal and with UACC-257 melanoma was > 100 µM in each case.

As to `Cn1c(=O)nc2n(-c3ccc(Cl)cc3Cl)c3ccccc3nc-2c1=O`, the TGI in the assay on HCT-116 colon stood at 5.19 µM; with DLD-1 colon it was 24.5 µM; with COLO 205 colon it was 8.73 µM; in the assay on OVCAR-8 ovarian it was 14.1 µM; with TK-10 renal, 54.2 µM; in the assay on HCT-15 colon, 15.4 µM. The TGI with MOLT-4 leukemia was 35.7 µM; in the assay with KM12 colon, 15.8 µM; with UACC-62 melanoma it was 6.16 µM; in the assay on SR leukemia, > 100 µM; in the assay on HT29 colon, 10.3 µM; in the assay on RXF 393 renal, 15.4 µM.

`OC(c1ccccc1)(c1ccccc1)c1cccnc1`: the TGI with NCI-H226 lung, in the assay with SN12C renal, with HCT-116 colon, in the assay on SNB-75 CNS, in the assay on DLD-1 colon and in the assay on COLO 205 colon was > 100 µM each time. Further, the TGI in the assay on OVCAR-8 ovarian, with TK-10 renal, in the assay on HCT-15 colon, in the assay with KM12 colon, in the assay on UACC-62 melanoma and in the assay on NCI-H460 lung was > 100 µM throughout. Besides, the TGI with HT29 colon and with UACC-257 melanoma was > 100 µM each time.

With `C=CCc1ccc(O)c(-c2cc(C3Oc4c(-c5cc(CC=C)ccc5O)cc(O)cc4[C@@H]3CO)ccc2O)c1` (stereo partly drawn), the TGI is 38.7 µM with NCI-H522 lung; > 100 µM in the assay on NCI-H226 lung; > 100 µM in the assay with SN12C renal; 43.3 µM with HCT-116 colon; > 100 µM with SNB-75 CNS; 38.6 µM in the assay with DLD-1 colon. Besides, the TGI in the assay with COLO 205 colon is > 100 µM; in the assay on OVCAR-8 ovarian it was > 100 µM; in the assay with TK-10 renal it was > 100 µM; in the assay with HCT-15 colon it was 29.3 µM; in the assay on KM12 colon, 85.7 µM; in the assay with UACC-62 melanoma it was 89.1 µM. For the same molecule, the TGI in the assay on SR leukemia was 47.7 µM; with NCI-H460 lung it was > 100 µM; with HT29 colon it was 79.3 µM; with RXF 393 renal, 55.8 µM; in the assay with UACC-257 melanoma, > 100 µM.

In the case of `CC(CCc1ccc2c(c1)c(=N)c1ccc(N)cc1n2O)CC(C)(C)C` (stereo not drawn), the TGI with SN12C renal worked out at 3.22 µM; with HCT-116 colon, 4.03 µM; in the assay with DLD-1 colon it was 3.5 µM; in the assay on COLO 205 colon, 2.79 µM; in the assay with TK-10 renal, 3.29 µM; with HCT-15 colon, 17.9 µM. Besides, the TGI with KM12 colon stood at 3.51 µM; in the assay on UACC-62 melanoma, 2.79 µM; in the assay on SR leukemia it was 4.03 µM; in the assay with RXF 393 renal it was 4.43 µM; in the assay with UACC-257 melanoma it was 3.63 µM.

For the molecule `COC(=O)[C@@]12OC[C@]34C([C@@H](O)C1O)[C@@]1(C)CC(=O)C(O)=C(C)C1C[C@H]3OC(=O)[C@H](OC(=O)CC(C)C(F)(F)F)[C@H]42` (stereo partly drawn), the TGI was 0.088 µM with NCI-H522 lung; 0.0338 µM with NCI-H226 lung; 0.911 µM in the assay on SN12C renal; 0.18 µM in the assay on HCT-116 colon; 0.187 µM in the assay with SNB-75 CNS; 0.509 µM in the assay on DLD-1 colon. The TGI with COLO 205 colon was 0.415 µM; with OVCAR-8 ovarian, 0.491 µM; in the assay on TK-10 renal it was 1.29 µM; in the assay with HCT-15 colon it was 1.77 µM; in the assay on MOLT-4 leukemia, 0.312 µM; with KM12 colon, 0.563 µM. For the same molecule, the TGI in the assay on UACC-62 melanoma is 0.0629 µM; with SR leukemia, 0.0215 µM; in the assay with NCI-H460 lung, 0.0554 µM; in the assay on HT29 colon it was 0.146 µM; in the assay on RXF 393 renal, 0.471 µM; with UACC-257 melanoma, 0.547 µM.

In the case of `CC(C)=CCC/C(C)=C/Cc1c(O)ccc2c1[nH]c1cc(O)c(C)cc12`, the TGI in the assay with NCI-H522 lung, in the assay on NCI-H226 lung, in the assay on SN12C renal, in the assay with HCT-116 colon, in the assay with DLD-1 colon and in the assay with COLO 205 colon was > 25 µM in each case. For the same molecule, the TGI with OVCAR-8 ovarian, with TK-10 renal, in the assay on HCT-15 colon, in the assay with MOLT-4 leukemia, in the assay on KM12 colon and with UACC-62 melanoma was > 25 µM each time. The TGI in the assay with SR leukemia, in the assay with NCI-H460 lung, in the assay on HT29 colon and with RXF 393 renal was > 25 µM in each case.

Regarding `CCOC(=O)CN1CCSC1=NC#N`, the TGI in the assay with NCI-H522 lung, in the assay with NCI-H226 lung, in the assay on SN12C renal, in the assay with HCT-116 colon, with SNB-75 CNS and with DLD-1 colon was > 100 µM in each case. The TGI with MCF7 breast, in the assay on COLO 205 colon, in the assay on OVCAR-8 ovarian, in the assay with HCT-15 colon, in the assay on MOLT-4 leukemia and with KM12 colon was > 100 µM each time. Further, the TGI is > 100 µM with UACC-62 melanoma; > 31.6 µM in the assay on NCI-H460 lung; > 100 µM in the assay with HT29 colon; > 100 µM with RXF 393 renal; > 100 µM in the assay on UACC-257 melanoma.

Take `CN(C)c1ccc(/C=C/c2cc[n+](C)c3ccccc23)cc1`: the TGI with NCI-H522 lung was found to be 11.5 µM; with NCI-H226 lung it was 16.2 µM; in the assay with SN12C renal it was 15 µM; in the assay on HCT-116 colon it was 8.62 µM; with SNB-75 CNS, 12.1 µM; in the assay with DLD-1 colon, 17.1 µM. For the same molecule, the TGI in the assay with MCF7 breast was 7.75 µM; in the assay with COLO 205 colon, 3.2 µM; with OVCAR-8 ovarian, 10.1 µM; in the assay on TK-10 renal, 25.1 µM; in the assay with MDA-MB-435, 10.2 µM; in the assay with HCT-15 colon, > 100 µM. Moreover, the TGI in the assay with MOLT-4 leukemia was > 38.3 µM; in the assay with KM12 colon, 10.7 µM; in the assay with UACC-62 melanoma, 12 µM; in the assay with SR leukemia, 6.51 µM; in the assay with NCI-H460 lung, 14.3 µM; in the assay on HT29 colon, 12.2 µM. The TGI was determined as 32.8 µM in the assay on RXF 393 renal and 8.57 µM with UACC-257 melanoma.

For `COC1CC(n2cnc3c(N)ncnc32)OC1CO` (stereo not drawn), the TGI in the assay on NCI-H522 lung, in the assay on NCI-H226 lung, in the assay with HCT-116 colon, in the assay with SNB-75 CNS, in the assay with DLD-1 colon and in the assay on COLO 205 colon was > 100 µM throughout. The TGI in the assay with OVCAR-8 ovarian, in the assay with TK-10 renal, in the assay with HCT-15 colon, in the assay on MOLT-4 leukemia, in the assay on KM12 colon and in the assay with UACC-62 melanoma was > 100 µM each time. Also, the TGI with SR leukemia, in the assay with NCI-H460 lung, with HT29 colon and in the assay with UACC-257 melanoma was > 100 µM throughout.

Regarding `O=C(Nc1ccc([N+](=O)[O-])cc1)C(=O)C(C(=O)c1ccccc1F)C1OC(=O)c2ccccc21` (stereo not drawn), the TGI is 41.6 µM in the assay with NCI-H522 lung; 59.8 µM with NCI-H226 lung; > 100 µM with SN12C renal; > 100 µM in the assay on HCT-116 colon; 96.4 µM in the assay on SNB-75 CNS; > 100 µM with DLD-1 colon. Further, the TGI in the assay on COLO 205 colon was 68 µM; with OVCAR-8 ovarian it was > 100 µM; in the assay on TK-10 renal, > 100 µM; in the assay with HCT-15 colon it was > 100 µM; in the assay on MOLT-4 leukemia, > 100 µM; with KM12 colon, > 100 µM. Also, the TGI is > 100 µM with UACC-62 melanoma; 64.7 µM in the assay with SR leukemia; > 100 µM with NCI-H460 lung; > 100 µM in the assay on HT29 colon; 79.6 µM with RXF 393 renal; > 100 µM in the assay with UACC-257 melanoma.

With `CSc1c(C(=O)Nc2ccc(Cl)cc2)c(N)[nH]c(=O)c1C#N`, the TGI with NCI-H522 lung is 51.7 µM; with NCI-H226 lung it was > 100 µM; in the assay on SN12C renal, > 82.2 µM; in the assay with HCT-116 colon, 44.3 µM; in the assay with SNB-75 CNS, > 100 µM; in the assay with MCF7 breast, > 78.6 µM. The TGI with COLO 205 colon was 45.8 µM; with OVCAR-8 ovarian, > 88.7 µM; in the assay with TK-10 renal, > 100 µM; with MDA-MB-435, > 70.9 µM; in the assay with HCT-15 colon, > 100 µM; with MOLT-4 leukemia, > 91.9 µM. Moreover, the TGI in the assay with KM12 colon was > 100 µM; in the assay with UACC-62 melanoma, > 100 µM; with SR leukemia, > 100 µM; with NCI-H460 lung, > 100 µM; in the assay with HT29 colon, > 66.4 µM; in the assay on RXF 393 renal, > 96.3 µM. Moreover, in the assay on UACC-257 melanoma, the TGI is > 93.7 µM.

With `Cc1ccc(-c2n[nH]c(=O)[nH]2)cc1`, the TGI in the assay on NCI-H522 lung, in the assay on NCI-H226 lung, in the assay on SN12C renal, with HCT-116 colon, in the assay with SNB-75 CNS and in the assay with MCF7 breast was > 100 µM throughout. In addition, the TGI in the assay on COLO 205 colon, in the assay on OVCAR-8 ovarian, with TK-10 renal, in the assay on MDA-MB-435, in the assay with HCT-15 colon and in the assay on MOLT-4 leukemia was > 100 µM throughout. The TGI in the assay on KM12 colon, with UACC-62 melanoma, in the assay with SR leukemia, in the assay on NCI-H460 lung, in the assay on HT29 colon and in the assay with RXF 393 renal was > 100 µM in each case. In the assay on UACC-257 melanoma, this molecule came in with a TGI of 98.7 µM.

The values are drawn from PubChem BioAssay (NCI).
